Assays:
Format in all cases: biochemical
KDR = target: T1, KDR (Homo sapiens, UniProt P35968); test: Inhibitory activity against KDR (VEGF-R2), in vitro data of Examples 170 and 207; conditions: 10 μM; Examples 171 to 206; read-out: KDR inhibition at 10 μM
T1 construct: expressed in transfected cells; host or cells: CHO cells
Procedure, shortened: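 KDR tyrosine phosphorylation detected by luminescence after overnight 4° C capture of 20 μg lysate protein with PY20:AP antibody. Lysates came from cells given compound for 2 h at 37° C, then final 20 ng/ml VEGF for 5 min; compound-free medium as control.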

c-Abl = c-Abl (Homo sapiens, UniProt P00519); test: Inhibitory activity against c-Abl (Example 207); conditions: Examples 171 to 206
FGFR3 (K650E) = target: T2, FGFR3 (K650E) (Homo sapiens, UniProt P22607, K650E); test: Recombinant GST-FGFR-3-K650E tyrosine kinase assay (33P into poly(Glu,Tyr)); conditions: 10 μM; Examples 171 to 206; read-out: FGFR3 inhibition at 10 μM
T2 construct: amino acids 411-806 of the cytoplasmic domain of human FGFR-3, N-terminally fused to GST; made in house; host or cells: Sf9 insect cells (baculovirus)
T2 sequence (P22607 411-806 K650E): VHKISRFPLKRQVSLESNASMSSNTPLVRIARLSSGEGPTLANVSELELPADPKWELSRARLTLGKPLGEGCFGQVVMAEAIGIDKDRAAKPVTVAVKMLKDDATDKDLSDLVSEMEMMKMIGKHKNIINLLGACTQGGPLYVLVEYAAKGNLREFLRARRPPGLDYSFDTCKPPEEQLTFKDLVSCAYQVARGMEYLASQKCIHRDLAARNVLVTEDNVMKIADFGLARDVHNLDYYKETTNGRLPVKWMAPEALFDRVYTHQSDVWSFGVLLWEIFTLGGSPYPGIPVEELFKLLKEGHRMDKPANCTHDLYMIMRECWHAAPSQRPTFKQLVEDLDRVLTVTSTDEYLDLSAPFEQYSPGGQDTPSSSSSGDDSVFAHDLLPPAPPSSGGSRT

c-Abl, sequence (P00519 whole entry): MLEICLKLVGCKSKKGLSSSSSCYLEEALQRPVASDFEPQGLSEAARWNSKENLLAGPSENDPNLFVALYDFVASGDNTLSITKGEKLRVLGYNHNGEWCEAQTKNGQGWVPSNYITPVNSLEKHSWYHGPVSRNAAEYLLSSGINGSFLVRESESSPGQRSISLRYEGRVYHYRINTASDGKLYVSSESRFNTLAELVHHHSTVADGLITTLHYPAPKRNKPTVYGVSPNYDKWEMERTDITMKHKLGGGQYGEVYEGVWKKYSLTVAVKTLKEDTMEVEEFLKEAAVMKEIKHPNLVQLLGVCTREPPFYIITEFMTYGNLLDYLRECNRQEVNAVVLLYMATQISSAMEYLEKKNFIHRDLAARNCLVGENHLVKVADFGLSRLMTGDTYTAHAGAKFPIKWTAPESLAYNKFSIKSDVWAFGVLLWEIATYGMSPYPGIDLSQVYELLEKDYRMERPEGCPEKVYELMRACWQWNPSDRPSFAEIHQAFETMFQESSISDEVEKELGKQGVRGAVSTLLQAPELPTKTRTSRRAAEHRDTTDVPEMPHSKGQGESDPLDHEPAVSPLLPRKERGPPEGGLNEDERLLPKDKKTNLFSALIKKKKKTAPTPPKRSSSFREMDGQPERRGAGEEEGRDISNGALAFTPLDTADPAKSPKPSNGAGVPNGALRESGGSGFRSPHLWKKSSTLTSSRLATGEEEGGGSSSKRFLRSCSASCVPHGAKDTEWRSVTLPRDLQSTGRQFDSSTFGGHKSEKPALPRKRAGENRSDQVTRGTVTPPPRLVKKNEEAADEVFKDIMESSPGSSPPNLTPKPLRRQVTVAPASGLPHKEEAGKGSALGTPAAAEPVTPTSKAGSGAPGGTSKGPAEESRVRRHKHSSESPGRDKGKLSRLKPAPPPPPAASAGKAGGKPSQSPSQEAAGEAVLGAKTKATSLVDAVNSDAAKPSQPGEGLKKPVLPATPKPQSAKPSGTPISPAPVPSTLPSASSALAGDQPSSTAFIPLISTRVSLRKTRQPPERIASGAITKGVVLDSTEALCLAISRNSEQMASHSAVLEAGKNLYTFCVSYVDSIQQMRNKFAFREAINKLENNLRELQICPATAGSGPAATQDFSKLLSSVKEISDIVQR
T1 sequence (P35968 20-1356): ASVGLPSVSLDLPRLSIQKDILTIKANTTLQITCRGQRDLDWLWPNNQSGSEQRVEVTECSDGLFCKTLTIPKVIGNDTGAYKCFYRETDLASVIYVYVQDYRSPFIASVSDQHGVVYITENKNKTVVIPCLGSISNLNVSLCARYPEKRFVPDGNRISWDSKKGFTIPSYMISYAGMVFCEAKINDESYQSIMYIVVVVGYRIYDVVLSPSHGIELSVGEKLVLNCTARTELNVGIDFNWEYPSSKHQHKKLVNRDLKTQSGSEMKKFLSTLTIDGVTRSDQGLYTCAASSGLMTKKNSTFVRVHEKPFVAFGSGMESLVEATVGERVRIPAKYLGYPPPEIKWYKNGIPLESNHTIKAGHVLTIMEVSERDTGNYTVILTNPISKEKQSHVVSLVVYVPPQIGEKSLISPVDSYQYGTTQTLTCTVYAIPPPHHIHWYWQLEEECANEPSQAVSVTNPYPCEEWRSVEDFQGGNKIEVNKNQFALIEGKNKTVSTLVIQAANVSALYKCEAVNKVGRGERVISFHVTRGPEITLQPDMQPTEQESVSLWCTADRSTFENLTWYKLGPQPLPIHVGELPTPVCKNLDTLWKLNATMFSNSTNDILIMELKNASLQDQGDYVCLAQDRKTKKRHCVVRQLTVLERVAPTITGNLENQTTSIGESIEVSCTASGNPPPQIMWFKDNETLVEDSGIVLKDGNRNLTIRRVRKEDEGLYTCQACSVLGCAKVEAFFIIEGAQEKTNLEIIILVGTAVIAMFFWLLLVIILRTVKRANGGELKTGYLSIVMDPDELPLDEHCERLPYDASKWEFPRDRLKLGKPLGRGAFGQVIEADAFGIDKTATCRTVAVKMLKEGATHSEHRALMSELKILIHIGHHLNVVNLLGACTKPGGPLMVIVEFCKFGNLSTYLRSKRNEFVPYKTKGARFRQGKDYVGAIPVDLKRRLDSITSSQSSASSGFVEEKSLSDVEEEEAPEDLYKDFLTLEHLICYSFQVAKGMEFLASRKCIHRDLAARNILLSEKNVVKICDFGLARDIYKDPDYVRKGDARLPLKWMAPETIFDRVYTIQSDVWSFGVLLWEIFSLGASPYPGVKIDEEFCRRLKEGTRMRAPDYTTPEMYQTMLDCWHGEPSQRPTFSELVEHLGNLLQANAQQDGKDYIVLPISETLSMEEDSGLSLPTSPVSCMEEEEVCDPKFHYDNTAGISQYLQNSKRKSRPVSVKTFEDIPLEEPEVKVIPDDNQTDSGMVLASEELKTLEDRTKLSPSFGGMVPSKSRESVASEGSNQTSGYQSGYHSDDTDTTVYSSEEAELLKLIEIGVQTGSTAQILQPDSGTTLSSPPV

| SMILES | inhibition at 10 µM (KDR) | inhibition at 10 µM (c-Abl) | inhibition at 10 µM (FGFR3 (K650E)) |
| --- | --- | --- | --- |
| CCN(C(=O)Nc1cc(NC(=O)c2cccc(C(F)(F)F)c2)ccc1C)c1cc(Nc2ccc(N3CCN(C)CC3)cc2)ncn1 [Example 192, N-[3-(3-Ethyl-3-{6-[4-(4-methyl-piperazin-1-yl)-phenylamino]-pyrimidin-4-yl}-ureido)-4-methyl-Phenyl]-3-trifluoromethyl-benzamide] | 87 to 100% | 79 to 100% | 56 to 98% |
| Cc1ccc(C(=O)Nc2cccc(C(F)(F)F)c2)cc1NC(=O)N(C)c1cc(Nc2ccc(N3CCN(C)CC3)cc2)ncn1 [Example 186, 4-Methyl-3-(3-methyl-3-{6-[4-(4-methyl-piperazin-1-yl)-phenylamino]-pyrimidin-4-yl}-ureido)-N-(3-trifluoromethyl-phenyl)-benzamide] | 87 to 100% | 79 to 100% | 56 to 98% |
| COc1cc(NC(=O)c2ccc(C)c(C(F)(F)F)c2)cc(NC(=O)N(C)c2cc(Nc3ccc(N4CCN(C)CC4)cc3)ncn2)c1 [Example 201, N-[3-Methoxy-5-(3-methyl-3-{6-[4-(4-methyl-piperazin-1-yl)-phenyl-amino]-pyrimidin-4-yl}-ureido)-phenyl]-4-methyl-3-trifluoromethyl-benzamide] | 87 to 100% | 79 to 100% | 56 to 98% |
| CCN(CC)CCOc1ccc(Nc2cc(N(C)C(=O)Nc3cc(NC(=O)c4cccc(C(F)(F)F)c4)ccc3C)ncn2)cc1 [Example 183, N-[3-(3-{6-[4-(2-Diethylamino-ethoxy)-phenylamino]-pyrimidin-4-yl}-3-methyl-ureido)-4-methyl-Phenyl]-3-trifluoromethyl-benzamide] | 87 to 100% | 79 to 100% | 56 to 98% |
| CNc1cc(NC(=O)Nc2cc(NC(=O)c3cccc(C(F)(F)F)c3)ccc2C)ncn1 [Example 172, N-{4-Methyl-3-[3-(6-methylamino-pyrimidin-4-yl)-ureido]-phenyl}-3-trifluoromethyl-benzamide] | 87 to 100% | 79 to 100% | 56 to 98% |
| COc1cc(NC(=O)c2ccc(CN3CCN(C)CC3)c(C(F)(F)F)c2)cc(NC(=O)N(C)c2cc(N)ncn2)c1 [Example 199, N-{3-[3-(6-Amino-pyrimidin-4-yl)-3-methyl-ureido]-5-methoxy-phenyl}-4-(4-methyl-piperazin-1-ylmethyl)-3-trifluoromethyl-benzamide] | 87 to 100% | 79 to 100% | 56 to 98% |
| COc1ccc(N)cc1NC(=O)N(C)c1cc(Nc2ccc(N3CCN(C)CC3)cc2)ncn1 [Example 196, 3-(5-Amino-2-methoxy-phenyl)-1-methyl-1-{6-[4-(4-methyl-piperazin-1-yl)-phenylamino]-pyrimidin-4-yl}-urea] | 87 to 100% | 79 to 100% | 56 to 98% |
| Cc1ccc(NC(=O)c2cccc(C(F)(F)F)c2)cc1NC(=O)N(CCc1ccccn1)c1cc(Nc2ccc(N3CCN(C)CC3)cc2)ncn1 [Example 191, N-[4-Methyl-3-[3-{6-[4-(4-methyl-piperazin-1-yl)-phenylamino]-pyrimid-in-4-yl]-3-(2-pyridin-2-yl-ethyl)-ureido]-phenyl}-3-trifluoromethyl-benzamide] | 87 to 100% | 79 to 100% | 56 to 98% |
| Cc1ccc(NC(=O)c2cccc(C(F)(F)F)c2)cc1NC(=O)Nc1cc(Nc2ccc(N3CCN(C)CC3)cc2)ncn1 [Example 174, N-[4-Methyl-3-(3-{6-[4-(4-methyl-piperazin-1-yl)-phenylamino]-pyrimidin-4-yl}-ureido)-phenyl]-3-trifluoromethyl-benzamide] | 87 to 100% | 79 to 100% | 56 to 98% |
| Cc1ccc(NC(=O)c2cccc(C(F)(F)F)c2)cc1NC(=O)Nc1cc(Nc2cccc(N3CCN(C)CC3)c2)ncn1 [Example 175, N-[4-Methyl-3-(3-{6-[3-(4-methyl-piperazin-1-yl)-phenylamino]-pyrimidin-4-yl}-ureido)-phenyl]-3-trifluoromethyl-benzamide] | 87 to 100% | 79 to 100% | 56 to 98% |
| COc1ccc(NC(=O)c2cccc(C(F)(F)F)c2)cc1NC(=O)N(C)c1cc(Nc2ccc(N3CCN(C)CC3)cc2)ncn1 [Example 197, N-[4-Methoxy-3-(3-methyl-3-{6-[4-(4-methyl-Piperazin-1-yl)-phenylamino]-pyrimidin-4-yl}-ureido)-phenyl]-3-trifluoromethyl-benzamide] | 87 to 100% | 79 to 100% | 56 to 98% |
| COC(=O)Nc1cc(N(C)C(=O)Nc2cc(C(=O)Nc3ccc(CN4CCN(C)CC4)c(C(F)(F)F)c3)ccc2C)ncn1 [Example 204, [6-(1-Methyl-3-{2-methyl-5-[4-(4-methyl-piperazin-1-ylmethyl)-3-trifluoromethyl-phenylcarbamoyl]-phenyl}-ureido)-pyrimidin-4-yl]-carbamic acid methyl ester] | 87 to 100% | 79 to 100% | 56 to 98% |
| Cc1ccc(NC(=O)c2cccc(C(F)(F)F)c2)cc1NC(=O)N(C)c1cc(Nc2ccc(C(=O)N3CCN(C)CC3)cc2)ncn1 [Example 187, N-[4-Methyl-3-(3-methyl-3-{6-[4-(4-methyl-piperazine-1-carbonyl)-phenylamino]-pyrimidin-4-yl}-ureido)-phenyl]-3-trifluoromethyl-benzamide] | 87 to 100% | 79 to 100% | 56 to 98% |
| Cc1ccc(NC(=O)c2cccc(C(F)(F)F)c2)cc1NC(=O)Nc1cc(Nc2cccc(OCCN3CCOCC3)c2)ncn1 [Example 180, N-[4-Methyl-3-(3-{6-[3-(2-morpholin-4-yl-ethoxy)-phenylamino]-pyrimidin-4-yl}-ureido)-phenyl]-3-trifluoromethyl-benzamide] | 87 to 100% | 79 to 100% | 56 to 98% |
| Cc1ccc(NC(=O)c2cccc(C(F)(F)F)c2)cc1NC(=O)Nc1cc(Nc2ccc(OCCN3CCOCC3)cc2)ncn1 [Example 179, N-[4-Methyl-3-(3-{6-[4-(2-morpholin-4-yl-ethoxy)-phenylamino]-pyrimidin-4-yl}-ureido)-phenyl]-3-trifluoromethyl-benzamide] | 87 to 100% | 79 to 100% | 56 to 98% |
| COc1cc(NC(=O)c2ccc(CN3CCN(C)CC3)c(C(F)(F)F)c2)cc(NC(=O)N(C)c2cc(Nc3ccccc3)ncn2)c1 [Example 200, N-{3-Methoxy-5-[3-methyl-3-(6-phenylamino-pyrimidin-4-yl)-ureido]-phenyl}-4-(4-methyl-piperazin-1-ylmethyl)-3-trifluoromethyl-benzamide] | 87 to 100% | 79 to 100% | 56 to 98% |
| Cc1ccc(NC(=O)c2cccc(C(F)(F)F)c2)cc1NC(=O)N(CCc1ccccn1)c1cc(Nc2ccccc2)ncn1 [Example 190, N-{4-Methyl-3-[3-(6-phenylamino-pyrimidin-4-yl)-3-(2-pyridin-2-yl-ethyl)-ureido]-phenyl}-3-trifluoromethyl-benzamide] | 87 to 100% | 79 to 100% | 56 to 98% |

— US8552002B2 (Novartis AG, priority 2004, dated 2013)
